Assay results: patent publication US20180042941A1, “CABAZITAXEL AND ITS USE FOR TREATING METASTATIC PROSTATE CANCERS” (AVENTIS PHARMA S.A., priority 2013, published 2018)

Legend:
tubulin = conditions: resulting in inhibition of microtubule depolymerization and tumor cell proliferation; cited from earlier work
[1] = tested on: tumor models poorly or not sensitive to chemotherapy, including taxanes; conditions: cited from earlier work
[2] = tested on: patients treated with cabazitaxel; conditions: cited from earlier work
[3] = tested on: patient with metastatic prostate cancer; experiment: case reports of patients treated with cabazitaxel in combination with prednisone or prednisolone (adverse events); conditions: for WBC level: units not provided
Procedure: This example relates to the treatment of a patient with metastatic prostate cancer, according the following dosage: cabazitaxel (25 mg/m^2)+prednisone 10 mg daily+budesonide (9 mg daily).
This example relates to a patient (with prostate carcinoma) who initiated treatment with study drug cabazitaxel (20 mg/m^2) and prednisone (10 mg) (cycle 1).
This example relates to the treatment of a patient with a metastatic carcinoma of the prostate, according the following dosage: cabazitaxel 20 mg/m^2 intravenously (day 1) every 3 weeks and prednisone 10 mg PO daily, from day 1 continuously.
The treatment was as follows: cabazitaxel 20 mg/m^2 on day 1 every 3 weeks in combination with prednisone/prednisolone.
The following treatment was followed: cabazitaxel 25 mg/m^2 on day 1 every 3 weeks in combination with prednisone/prednisolone.
The dosage regimen was as follows: cabazitaxel 25 mg/m^2 intravenous infusion over 1 hour on day 1 of each 3 week cycle as well as oral prednisone/prednisolone 10 mg daily.
The following treatment was applied: cabazitaxel 20 mg/m^2 intravenously every 3 weeks, in combination with oral prednisone or prednisolone 10 mg daily.
This example relates to a patient with metastatic prostate cancer. The following treatment was followed: cabazitaxel 25 mg/m^2 intravenously (day 1) every 3 weeks and prednisone 10 mg PO daily, from day 1 continuously.
This patient was treated with cabazitaxel 20 mg/m^2 on day 1 every 3 weeks in combination with prednisone/prednisolone.
The following therapy dosage was used: cabazitaxel 25 mg/m^2 intravenously (day 1) every 3 weeks, plus prednisone 10 mg orally daily.
The therapy was as follows: the patient received cabazitaxel 25 mg/m^2 intravenous infusion over 1 hour on day 1 of each 3 week cycle as well as oral prednisone/prednisolone 10 mg daily.
The following dosage regimen was used: cabazitaxel 25 mg/m^2 on day 1 every 3 weeks in combination with prednisone/prednisolone.
This example relates to a patient with metastatic castration resistant prostate cancer not pretreated with chemotherapy. The following therapy was applied: cabazitaxel 25 mg/m^2 intravenously (day 1) every 3 weeks. Prednisone 10 mg PO daily, from day 1 continuously.
This example relates to a patient with metastatic castration resistant prostate cancer not pretreated with chemotherapy, having the following therapy: cabazitaxel 25 mg/m^2 intravenously (day 1) every 3 weeks and prednisone 10 mg PO daily, from day 1 continuously.
This example relates to a patient with metastatic castration resistant prostate cancer not pre-treated with chemotherapy. The following therapy was applied: cabazitaxel 20 mg/m^2 intravenously (day 1) every 3 weeks, prednisone 10 mg PO daily, from day 1 continuously.
The following dosage regimen was applied: cabazitaxel 25 mg/m^2 intravenously every 3 weeks, in combination with oral prednisone or prednisolone 10 mg daily.
The therapy involved the administration of cabazitaxel on day 1 every 3 weeks in combination with prednisone.
The following therapy was applied: cabazitaxel 25 mg/m^2 on day 1 every 3 weeks in combination with prednisolone.
The following dosage regimen was applied: cabazitaxel 20 mg/m^2 intravenously (day 1) every 3 weeks and prednisone 10 mg PO daily, from day 1 continuously.
The following dosage regimen was applied: cabazitaxel 20 mg/m^2 on day 1 every 3 weeks in combination with prednisolone.
The following dosage regimen was applied: cabazitaxel 25 mg/m^2 on day 1 every 3 weeks in combination with prednisone.
The applied dosage regimen was as follows: cabazitaxel 25 mg/m^2 intravenous infusion over 1 hour on day 1 of each 3 week cycle as well as oral prednisone 10 mg daily.

[4] = Ex 3, cabazitaxel 25 mg/m^2 + prednisone + budesonide
[5] = Ex 5, cabazitaxel 20 mg/m^2 + prednisone, cycle 4, day 5
[6] = Ex 5, cabazitaxel 20 mg/m^2 + prednisone, during hospitalization
[7] = Ex 7, cabazitaxel 25 mg/m^2 + prednisone
[8] = Ex 7, cabazitaxel 25 mg/m^2 + prednisone, day 9 of first cycle
[9] = Ex 12, cabazitaxel 25 mg/m^2 + prednisone
[10] = Ex 16, cabazitaxel 25 mg/m^2 + prednisolone
[11] = Ex 16, cabazitaxel 25 mg/m^2 + prednisolone, five days after hospitalization
[12] = Ex 20, cabazitaxel 25 mg/m^2 + prednisolone, after intensive care
[13] = Ex 20, cabazitaxel 25 mg/m^2 + prednisolone, on admission

SMILES: CO[C@H]1C(=O)[C@]2(C)[C@@H](OC)C[C@H]3OC[C@@]3(OC(C)=O)[C@H]2[C@H](OC(=O)c2ccccc2)[C@]2(O)C[C@H](OC(=O)[C@H](O)[C@@H](NC(=O)OC(C)(C)C)c3ccccc3)C(C)=C1C2(C)C [cabazitaxel, 4α-acetoxy-2α-benzoyloxy-5β,20-epoxy-1β-hydroxy-7β,10β-dimethoxy-9-oxo-11-taxen-13α-yl (2R,3S)-3-tert-butoxycarbonyl-amino-2-hydroxy-3-phenylpropionate]
- action on tubulin (tubulin): binds to and stabilizes tubulin
- activity in tumor models [1]: active
- gastrointestinal adverse reactions reported [2]: Gastrointestinal (GI) hemorrhage and perforation, ileus, colitis, including fatal outcome
- control fibrogastroscopy finding ([3]; Ex 1, cabazitaxel 20 mg/m^2 + prednisone, ten days after antisecretory and antiulcer therapy): atrophic gastritis
- outcome of event ([3]; Ex 1, cabazitaxel 20 mg/m^2 + prednisone, ten days after onset of epigastric pain): fully recovered
- adverse event complained of ([3]; Ex 1, patient, cabazitaxel 20 mg/m^2 every 3 weeks + prednisone 10 mg daily, 15th day of cycle 1): epigastric pain
- fibrogastroduodenoscopy finding ([3]; Ex 1, patient, cabazitaxel 20 mg/m^2 every 3 weeks + prednisone 10 mg daily, two days after 15th day of cycle 1): acute ulcer in the small curvature
- colonic spasm (grade) ([3]; Ex 2, cabazitaxel 20 mg/m^2 + prednisone, during 7th cycle): grade 2 to grade 1
- outcome of colitis ([3]; Ex 2, cabazitaxel 20 mg/m^2 + prednisone, three days later): recovered
- colitis (grade) ([3]; Ex 2, patient, cabazitaxel 20 mg/m^2 every 3 weeks + prednisone 10 mg daily, 75 days after first, 6 days after most recent dose (cycle 4)): 3
- colitis (grade) [3, 4]: 2
- outcome of events [3, 4]: no more episodes of SVT or diarrhea
- white blood cell (WBC) ([3]; Ex 3, cabazitaxel 25 mg/m^2 + prednisone + budesonide, 45 days after first dose, normal 4-10): 6.9
- haemoglobin ([3]; Ex 3, cabazitaxel 25 mg/m^2 + prednisone + budesonide, 45 days after first dose, normal 8.5-11): 7.3
- creatinine ([3]; Ex 3, cabazitaxel 25 mg/m^2 + prednisone + budesonide, 45 days after first dose, normal 60-110): 94
- supraventricular tachycardia with angina (grade) ([3]; Ex 3, cabazitaxel 25 mg/m^2 + prednisone + budesonide, 45 days after first, 3 days after most recent dose): 3
- sigmoidoscopy finding ([3]; Ex 3, cabazitaxel 25 mg/m^2 + prednisone + budesonide, six days later): severe colitis
- diarrhea ([3]; Ex 3, patient, cabazitaxel 25 mg/m^2 + prednisone 10 mg daily + budesonide 9 mg daily, 43 days after first, 1 day after most recent dose): slight diarrhea
- neutropenia ([3]; Ex 4, cabazitaxel 20 mg/m^2 + prednisone, during enterocolitis): no neutropenia
- outcome of event ([3]; Ex 4, cabazitaxel 20 mg/m^2 + prednisone, three days later): recovered
- enterocolitis (grade) ([3]; Ex 4, patient, cabazitaxel 20 mg/m^2 + prednisone 10 mg, 145 days after first, 7 days after most recent dose (cycle 7)): 3
- gastritis (grade) [3, 5]: 2
- nausea (grade) [3, 5]: 2
- WBC decrease (grade) [3, 6]: 3
- WBC level [3, 6]: 2720
- outcome of events ([3]; Ex 5, cabazitaxel 20 mg/m^2 + prednisone, leukopenia three days after corrective treatment, hypotension, nausea and gastritis one day later): recovered
- WBC level ([3]; Ex 5, cabazitaxel 20 mg/m^2 + prednisone, on the day after): 1000
- hypotension (grade) ([3]; Ex 5, patient, cabazitaxel 20 mg/m^2 every 3 weeks + prednisone 10 mg daily, cycle 4, day 5): 2
- pneumonia (grade) ([3]; Ex 6, cabazitaxel 20 mg/m^2 + prednisone, day 7 of cycle 1): 4
- outcome ([3]; Ex 6, cabazitaxel 20 mg/m^2 + prednisone, one day later, due to paralytic ileus and pneumonia): died
- paralytic ileus (grade) ([3]; Ex 6, patient, cabazitaxel 20 mg/m^2 every 3 weeks + prednisone, day 4 of cycle 1): 4
- time to recovery from colitis [3, 7]: 9 days
- time to recovery from neutropenia [3, 7]: 5 days
- diarrhea with blood in feces, number of episodes [3, 8]: more than 10 episodes
- neutropenia (grade) [3, 8]: 4
- colitis (grade) ([3]; Ex 7, cabazitaxel 25 mg/m^2 + prednisone, neutropenic colitis, day 9 of first cycle): 3
- absolute neutrophil count ([3]; Ex 7, patient, cabazitaxel 25 mg/m^2 every 3 weeks + prednisone 10 mg, day 9 of first cycle): 0.01
- clostridium difficile infection (grade) ([3]; Ex 8, cabazitaxel 25 mg/m^2 + prednisone/prednisolone): 3
- neutropenia (grade) ([3]; Ex 8, cabazitaxel 25 mg/m^2 + prednisone/prednisolone, 5th day of cycle 1): 3
- outcome ([3]; Ex 8, cabazitaxel 25 mg/m^2 + prednisone/prednisolone, six days later): recovered
- neutropenia (grade) ([3]; Ex 8, cabazitaxel 25 mg/m^2 + prednisone/prednisolone, two days later): 4
- diarrhea (grade) ([3]; Ex 8, patient, cabazitaxel 25 mg/m^2 every 3 weeks + prednisone/prednisolone 10 mg daily, 5th day of cycle 1): 2
- outcome ([3]; Ex 9, cabazitaxel 20 mg/m^2 + prednisolone, 5 days after initial hospitalization): death
- neutrophil count ([3]; Ex 9, cabazitaxel 20 mg/m^2 + prednisolone, day following admission): 0.4
- neutropenic colitis (grade) ([3]; Ex 9, cabazitaxel 20 mg/m^2 + prednisolone, final diagnosis): 4
- diagnosis at hospitalization ([3]; Ex 9, patient, cabazitaxel 20 mg/m^2 every 3 weeks + prednisolone 10 mg daily, four days after second administration): acute bowel obstruction
- neutropenic colitis (grade) ([3]; Ex 10, cabazitaxel 25 mg/m^2 + prednisone): 4
- neutrophil count ([3]; Ex 10, cabazitaxel 25 mg/m^2 + prednisone, one day later, normal 1.4-7.7): 1e+08 L⁻¹
- fever (grade) ([3]; Ex 10, cabazitaxel 25 mg/m^2 + prednisone, readmission two days after discharge): 1
- outcome of event ([3]; Ex 10, cabazitaxel 25 mg/m^2 + prednisone, three days after readmission): resolved
- diarrhea (grade) ([3]; Ex 10, patient, cabazitaxel 25 mg/m^2 every 3 weeks + prednisone 10 mg daily, 7 days after first cycle): 2
- diagnosis ([3]; Ex 11, cabazitaxel 20 mg/m^2 + prednisone/prednisolone, nine days after last dose): Neutropenic infection (colitis)
- platelet count ([3]; Ex 11, cabazitaxel 20 mg/m^2 + prednisone/prednisolone, nine days after last dose, NR 150×10^3-450×10^3): 93 ×10^3 cells/mm^3
- CRP ([3]; Ex 11, cabazitaxel 20 mg/m^2 + prednisone/prednisolone, nine days after last dose, NR <0.5): 0.39 mg/dL
- neutrophils ([3]; Ex 11, cabazitaxel 20 mg/m^2 + prednisone/prednisolone, nine days after last dose, normal 1.7×10^3-8.0×10^3): 1.12 ×10^3 cells/mm^3
- outcome ([3]; Ex 11, cabazitaxel 20 mg/m^2 + prednisone/prednisolone, two days after admission): recovered
- WBC ([3]; Ex 11, patient, cabazitaxel 20 mg/m^2 every 3 weeks + prednisone/prednisolone, nine days after last dose, normal 3.5×10^3-10.5×10^3): 2.41 ×10^3 cells/mm^3
- enterocolitis (grade) [3, 9]: 4
- febrile neutropenia (grade) [3, 9]: 4
- renal failure (grade) [3, 9]: 4
- septic shock (grade) [3, 9]: 4
- outcome ([3]; Ex 12, cabazitaxel 25 mg/m^2 + prednisone, 2 days after admission, septic shock secondary to neutropenic enterocolitis): expired
- fever ([3]; Ex 12, cabazitaxel 25 mg/m^2 + prednisone, 13 days after first dose): 38.5 °C
- lower abdominal pain (grade) ([3]; Ex 12, patient, cabazitaxel 25 mg/m^2 every 3 weeks + prednisone 10 mg daily, 13 days after first dose): 3
- outcome ([3]; Ex 13, cabazitaxel 25 mg/m^2 + prednisone/prednisolone, cause of death reported as progression of disease): died
- diagnosis at hospitalization ([3]; Ex 13, patient, cabazitaxel 25 mg/m^2 every 3 weeks + prednisone/prednisolone 10 mg daily, ten days after first cycle): neutropenic enterocolitis and sepsis
- outcome ([3]; Ex 14, cabazitaxel 25 mg/m^2 + prednisone, nine days after hospitalization): recovered
- adverse event ([3]; Ex 14, patient, cabazitaxel 25 mg/m^2 every 3 weeks + prednisone, 232 days after first, 14 days after most recent dose (cycle 9)): neutropenic enteritis
- outcome ([3]; Ex 15, cabazitaxel 25 mg/m^2 + prednisone, 4 days later): recovered
- video coloscopy finding ([3]; Ex 15, cabazitaxel 25 mg/m^2 + prednisone, bacteriological tests later negative): probable infectious colitis
- rectal bleeding (grade) ([3]; Ex 15, cabazitaxel 25 mg/m^2 + prednisone, cycle 6, 111 days after first, 6 days after last administration): 1
- diarrhea (grade) ([3]; Ex 15, patient, cabazitaxel 25 mg/m^2 every 3 weeks + prednisone 10 mg daily, 108 days after first administration): 1
- SAH (subarachnoid hemorrhage) (grade) [3, 10]: 2
- urinary tract infection (grade) [3, 10]: 3
- gastritis, final diagnosis (grade) ([3]; Ex 16, cabazitaxel 25 mg/m^2 + prednisolone, day 17 of cycle 1): 3
- DIC (grade) [3, 11]: 4
- INR [3, 11]: 1.6
- outcome of gastritis ([3]; Ex 16, cabazitaxel 25 mg/m^2 + prednisolone, three days later): recovered
- ulcus ventriculi, initial suspicion (grade) ([3]; Ex 16, patient, cabazitaxel 25 mg/m^2 every 3 weeks + prednisolone 10 mg, day 17 of cycle 1): 3
- outcome ([3]; Ex 17, cabazitaxel 20 mg/m^2 + prednisone, seven days after hospitalization): recovered
- adverse event (confirmed by emergency surgery) ([3]; Ex 17, patient, cabazitaxel 20 mg/m^2 every 3 weeks + prednisone 10 mg daily, 42 days after first, 21 days after most recent dose, life-threatening): perforation of ulcer
- outcome of duodenal ulcers ([3]; Ex 18, cabazitaxel 25 mg/m^2 + prednisone or prednisolone): recovered
- acute cystitis (grade) ([3]; Ex 18, cabazitaxel 25 mg/m^2 + prednisone or prednisolone, day 26 of cycle 1): 1
- duodenal ulcers (grade) ([3]; Ex 18, patient, cabazitaxel 25 mg/m^2 every 3 weeks + prednisone or prednisolone 10 mg daily, four days after day 16 of cycle 1): 1
- haematocrit ([3]; Ex 19, cabazitaxel + prednisone, 128 days after first dose, reference 42-52): 16.33%
- digestive haemorrhage (grade) ([3]; Ex 19, cabazitaxel + prednisone, 128 days after first, 20 days after last dose, life threatening): 4
- outcome ([3]; Ex 19, cabazitaxel + prednisone, discharged 9 days after hospitalization): recovered
- haemoglobin ([3]; Ex 19, patient, cabazitaxel every 3 weeks + prednisone, 128 days after first, 20 days after last dose, reference 13.0-16.0): 51.2 g/L
- haematocrit [3, 12]: 19.5%
- haemoglobin [3, 12]: 72 g/L
- platelets [3, 12]: 142 ×10^9
- outcome ([3]; Ex 20, cabazitaxel 25 mg/m^2 + prednisolone, fifteen days after hospitalization): recovered
- haematocrit [3, 13]: 19%
- haemoglobin [3, 13]: 59 g/L
- platelet ([3]; Ex 20, cabazitaxel 25 mg/m^2 + prednisolone, thirteen days after hospitalization, units not specified, 180-320 thousand in 1 mcl): 122
- intestinal haemorrhage (grade) ([3]; Ex 20, patient, cabazitaxel 25 mg/m^2 every 3 weeks + prednisolone, 17 days after first dose, life threatening): 4
- adverse event during hospital stay ([3]; Ex 21, cabazitaxel 20 mg/m^2 + prednisone): febrile neutropenia
- outcome ([3]; Ex 21, cabazitaxel 20 mg/m^2 + prednisone, one day after discharge): recovered
- small bowel obstruction (grade) ([3]; Ex 21, patient, cabazitaxel 20 mg/m^2 every 3 weeks + prednisone 10 mg daily, cycle 2, most likely secondary to adhesions): 4
- outcome ([3]; Ex 22, cabazitaxel 20 mg/m^2 + prednisolone, three days later, after laproscopy): recovered
- small intestinal obstruction (grade) ([3]; Ex 22, patient, cabazitaxel 20 mg/m^2 every 3 weeks + prednisolone, cycle 9, 181 days after first, 13 days after most recent dose): 3
- general weakness (grade) ([3]; Ex 23, cabazitaxel 25 mg/m^2 + prednisone): 3
- red blood loss per anum (grade) ([3]; Ex 23, cabazitaxel 25 mg/m^2 + prednisone, 85 days after first, 1 day after most recent dose): 1
- outcome ([3]; Ex 23, cabazitaxel 25 mg/m^2 + prednisone, 117 days after first dose, due to disease progression): died
- pathologic fracture lumbar spine 1 (grade) ([3]; Ex 23, cabazitaxel 25 mg/m^2 + prednisone, five days after day 95): 3
- outcome of red blood loss per anum and hematuria ([3]; Ex 23, cabazitaxel 25 mg/m^2 + prednisone, two days after hospitalization): recovered
- hematuria (grade) ([3]; Ex 23, patient, cabazitaxel 25 mg/m^2 every 3 weeks + prednisone, 85 days after first, 1 day after most recent dose): 3
- outcome ([3]; Ex 24, cabazitaxel 25 mg/m^2 + prednisone, about a month after hospitalization, unknown cause, colitis ongoing): died
- time to resolution of ileus ([3]; Ex 25, cabazitaxel 20 mg/m^2 + prednisone): 13 days
- mechanical ileus due to unclear cause (grade) ([3]; Ex 25, cabazitaxel 20 mg/m^2 + prednisone, 215 days after first, 6 days after most recent dose): 2
- diagnosis ([3]; Ex 25, patient, cabazitaxel 20 mg/m^2 every 3 weeks + prednisone 10 mg daily, 214 days after first dose): ileus
